One assay relates to KGN cells. Nature of the assay: TUNEL staining (apoptosis). The class given is cell-based, human. To be noted: for TUNEL positive cells: 4 h, 0.05 mg/mL; for TUNEL labelled cells: 24 h, 0.005 mg/mL. How it is done:
Primary-derived human granulosa cells and KGN cells were plated into Nunc Lab-Tek II CC2 Chamber Slides at 30,000 cells per chamber well in a final volume of 0.3 mL of DMEM/F12 + 10% FBS complete cell culture medium and incubated for 24 h at 37 °C + 5% CO2 to allow cell attachment to slides. Spent media (media deficient of nutrients and serum) and non-viable and non-adherent cellswere discarded and replaced with the D. orbita fractions at concentrations of 0.005, 0.01 and 0.05 mg/mL in a final volume of 0.3 mL of DMEM/F12 + 10% medium. A medium-only and a 1% DMSO control were also added before incubation for 4 and 24 h at 37 °C + 5% CO2. This experiment was repeated on three separate occasions (n = 3). The supernatant was removed and the cells rinsed with PBS before fixation with 4% paraformaldehyde for 25 min at room temperature. The DeadEnd™ Fluorometric TUNEL System (Promega) was performed as recommended by the manufacturer. Briefly the cells were treated with 0.2% Triton X-100 for 5 min, to permeablize the cells. The cells were rinsed in PBS before the addition of 50 μL of rTdT incubation buffer (Promega) at 37 °C for 1 h, protected from light. Cells were rinsed in 2× sodium chloride and sodium citratesolution (Promega) for 15 min at room temperature (25 °C) then rinsed again with PBS. The cells were counter-stained with 1 μg/mL propidium iodide (PI). A separate positive control slide of 1 μg/mL DNase I, and a negative control slide of buffer without rTdT, was prepared in conjunction with treatment slides. Cells were examined immediately and photographed at 200 and 400× magnification using a Fluorescence Olympus BX50 Microscope with filter Chroma 31001 at excitation 450–495 nm, Dichroic 505 and emission 515–555 nm for the green fluorescein of TUNEL and Chroma 31002 at excitation 515–550 nm, Dichroic 565 and emission 575–615 nm for the red fluorescence of the PI staining. Photomicrographs of four fields of view were taken for each treatment in each repeat of theassay and the number of TUNEL positive nuclei, stained bright green, were calculated as a fraction of the total number of PI stained nuclei, stained bright red, in each image. The average of the four fields was then calculated.

The subject of assay [1] is MCF-7 breast carcinoma cells. Further details: method as in PMID 19491143. To be noted: MCF-7, 4 h exposure, tyrindoleninone in an impure extract; read-out: concentration giving 50% reduction in cell viability; cited from earlier work.
The subject of assay [2] is CaCo2 colon carcinoma cells. Set-up: method as in PMID 19491143. To be noted: CaCo2, 4 h exposure, tyrindoleninone in an impure extract; read-out: concentration giving 50% reduction in cell viability; cited from earlier work.
The next assay relates to lymphoma cell. Further details: method as in PMID 17088067. To be noted: 1 h exposure; read-out: concentration giving (predicted) 50% reduction in lymphoma cell viability; cited from earlier work.
For assay [3], the system named is untransformed human mononuclear cells (MNC). Set-up: method as in PMID 19491143, PMID 17088067. To be noted: in vitro, cited from earlier work.
A further assay concerns U937 lymphoma cell line. To be noted: U937, 4 h exposure, tyrindoleninone in an impure extract; read-out: concentration giving 50% reduction in cell viability; cited from earlier work.

Where two headings read alike, the source gives them in different places.

TUNEL positive cells, TUNEL labelled cells and IC50 data for two compounds are collected here from publication PMC3280530, “Marine Compounds Selectively Induce Apoptosis in Female Reproductive Cancer Cells but Not in Primary-Derived Human Reproductive Granulosa Cells” (Marine Drugs, 2012).

Regarding `O=C1Nc2cc(Br)ccc2C1=O` [6-Bromoisatin, 6-bromoisatin], in the assay with KGN cells, the TUNEL positive cells is reported as 58% and the TUNEL labelled cells was 53%.

For `CSC1=Nc2cc(Br)ccc2C1=O` [Tyrindoleninone, tyrindoleninone], in the assay with KGN cells, the TUNEL positive cells amounted to 66%. For the same compound, the TUNEL labelled cells in the assay on KGN cells is 62%. The IC50 in assay [1] was 391 µM; in assay [2] it was 391 µM; in the assay with lymphoma cell it was 4 µM; in assay [3] (1 h exposure, read-out: IC50), 195 µM; in assay [3], 50 µg/mL; in the assay with U937 lymphoma cell line, 391 µM.
